Experiments:
Format in all cases: in vivo, C57BL/6 mice
[1] = test system: α-SMA, Collagen I, PAI-1, Acetylated H3; assay: Western blot of fibrosis markers and Acetylated H3 in lung tissue of polyhexamethylene guanidine-induced pulmonary fibrosis mouse model; details: PHMG model, 15, 30, 60 mg/kg intraperitoneally for 2 weeks, western blot densitometry
Description: (§1) As a polyhexamethylene guanidine (PHMG) model, 7-week old female C57BL/6 mice were used, and the mice were divided into a total of 5 groups, a polyhexamethylene guanidine-administered group, CG200745-administered groups in which CG200745 is administered at 15, 30, 60 mg/kg after administration of polyhexamethylene guanidine, and a control group to perform the experiment. Airway incision was performed on the mice and 1 mg/kg polyhexamethylene guanidine was injected into the airway in a volume of 50 μl. After injection, the incision site was closed with 5-0 nylon. After the injection of polyhexamethylene guanidine, the drug was administered intraperitoneally for a total of 2 weeks.
(§2) Western blot was performed to identify makers of pulmonary fibrosis (α-SMA, collagen I, PAI-1, E-cadherin, N-cadherin) and Acetylated H3 in tissues. The mice were sacrificed, and then subjected to chest opening and the lungs were removed and stored frozen for a day, and the mouse tissues were ground to prepare a protein sample. It was subjected to SDS-PAGE and the fractionated protein sample was transferred to PVDF (polyvinylidene difluoride) membrane. […]
(§3) With the average for two controls being 1, the relative value was recorded to conduct densitometry analysis.

collagen [2] = assay: Sircol assay of bronchoalveolar lavage fluid in polyhexamethylene guanidine-induced pulmonary fibrosis mouse model; details: 15, 30, 60 mg/kg intraperitoneally for 2 weeks after 1 mg/kg polyhexamethylene guanidine into the airway
Description: as §1
After two weeks of drug administration, the skin of the airway of the mouse was incised to expose the airway and washed with 800 μl of PBS into the trachea and then 500 μl of the solution was recovered therefrom to obtain bronchoalveolar lavage fluid. The bronchoalveolar lavage fluid was centrifuged at 4° C. and 1,200 rpm for 5 minutes to obtain supernatant. 50 μl of the bronchoalveolar lavage fluid and 1 ml of sircol dye reagent were mixed for 30 minutes. […] After discarding the supernatant, 1 ml of Alkali reagent was added and absorbance was measured at 555 nm.

[3] = test system: α-SMA, Collagen I, PAI-1, Acetylated H3; assay: Western blot of fibrosis markers and Acetylated H3 in lung tissue of bleomycin-induced mouse model; details: 15, 30, 60 mg/kg intraperitoneally for 2 weeks, western blot densitometry
Description: (§4) As a bleomycin model, 7-week old female C57BL/6 mice were used, and the mice were divided into a total of 5 groups, a bleomycin-administered group, CG200745-administered groups in which CG200745 is administered at 15, 30, 60 mg/kg after administration of bleomycin, and a control group to perform the experiment. Airway incision was performed on the mice and 2 mg/kg bleomycin was injected into the airway in a volume of 50 μl. After injection, the incision site was closed with 5-0 nylon. After the injection of bleomycin, the drug was administered intraperitoneally for a total of 2 weeks.
as §2, §3

[4] = test system: polyhexamethylene guanidine-induced pulmonary fibrosis; assay: Histopathological analysis of lung (H&E, Masson's trichrome) in polyhexamethylene guanidine-induced pulmonary fibrosis mouse model; details: 15, 30, 60 mg/kg intraperitoneally for 2 weeks after 1 mg/kg polyhexamethylene guanidine into the airway
Description: (§5) As a polyhexamethylene guanidine (PHMG) model, 7-week old female C57BL/6 mice were used, and the mice were divided into a total of 5 groups, a polyhexamethylene guanidine-administered group, CG200745-administered groups in which CG200745 is administered at 15, 30, 60 mg/kg after administration of polyhexamethylene guanidine, and a control group to perform the experiment. Airway incision was performed on the mice and 1 mg/kg polyhexamethylene guanidine was injected into the airway in a volume of 50 μl. After injection, the incision site was closed with 5-0 nylon. After the injection of polyhexamethylene guanidine, the drug was administered intraperitoneally for a total of 2 weeks. The mice were sacrificed and subjected to chest opening and then the lungs were removed and fixed with 4% paraformaldehyde. They were fixed by immersing in 4% paraformaldehyde for 48 hours at 4° C., and then a paraffin block was prepared. 4 μm of microsection was made from the paraffin-embedded tissue and attached to a slide. Hemotoxin and eosin staining and Masson's trichrome staining were performed. For hemotoxin and eosin staining, the slide was immersed in xylene twice for 5 minutes each and in 100%, 95% and 70% ethanol for 2 minutes each, and washed with running distilled water. […]

[5] = test system: kidney with acute renal failure induced after ureteral obstruction (renal fibrosis); assay: Histopathology analysis (hematoxylin and eosin) of kidney in unilateral ureteral obstruction (renal failure) mouse model; details: 30 mg/kg/day intake in distilled water, day 7 after ureteral obstruction, compared to the solvent control group
Description: 8-week old female C57BL/6 mice were used. After opening the abdomen of C57BL/6 mice, one of two ureters was closed with 6-0 cotton yarn. After closing the ureter, the abdomen was sutured and disinfected. Immediately after surgery, the host mice were classified into the solvent control group which is the non-intake group, and the CG200745 intake group in which CG200745 dissolved in distilled water was consumed (30 mg/kg/day). On the 7th day after surgery, the solvent control group and the CG200745 intake group mice were euthanized, and then normal kidney and the kidney with acute renal failure induced after ureteral obstruction were extracted. The extracted normal kidney and kidney with acute renal failure induced were fixed with 4% paraformaldehyde, and then covered with paraffin to prepare a tissue section with a 3 μm thickness. Hematoxylin and eosin staining was conducted on the completed tissue sections to perform a histopathological analysis of renal tissues. For hematoxylin staining, kidney tissue sections were stained with Gill's hematoxylin for 5 minutes, washed with tap water, and then treated with 95% ethanol. Eosin staining was performed by staining with eosin and phloxine for 1 minute. The tissue sections were then dehydrated with ethanol and xylene and fixed with Canada balsam.

[6] = test system: bleomycin-induced pulmonary fibrosis; assay: Histopathological analysis of lung (H&E, Masson's trichrome) in bleomycin-induced mouse model; details: 15, 30, 60 mg/kg intraperitoneally for 2 weeks after 2 mg/kg bleomycin into the airway
Description: as §5, with “a bleomycin” for “a polyhexamethylene guanidine (PHMG)”, “a bleomycin-administered” for “a polyhexamethylene guanidine-administered”, “of bleomycin,” for “of polyhexamethylene guanidine,”, “and 2” for “and 1”, “mg/kg bleomycin” for “mg/kg polyhexamethylene guanidine”, “water. After washing, the slide was immersed in hematoxylin for 1 minute, washed several times with running distilled water, then immersed in eosin for 30 seconds and washed several times with running distilled water.” for “water.”

collagen [7] = assay: Sircol assay of bronchoalveolar lavage fluid in bleomycin-induced mouse model; details: 15, 30, 60 mg/kg intraperitoneally for 2 weeks after 2 mg/kg bleomycin into the airway
Description: as §4
After two weeks of drug administration, the skin of the airway of the mouse was incised to expose the airway and washed with 800 μl of PBS into the trachea and then 500 μl of the solution was recovered therefrom to obtain bronchoalveolar lavage fluid. The bronchoalveolar lavage fluid was centrifuged at 4° C. and 1,200 rpm for 5 minutes to obtain supernatant. 50 μl of the bronchoalveolar lavage fluid and 1 ml of sircol dye reagent were mixed for 30 minutes. After centrifugation at 4° C. and 12,000 rpm for 10 minutes, the supernatant was discarded, 750 μl of Acid-salt wash reagent was added for washing, and then centrifugation was performed at 12,000 rpm for 10 minutes. After discarding the supernatant, 1 ml of Alkali reagent was added and absorbance was measured at 555 nm.

[8] = test system: α-SMA (alpha-smooth muscle actin); assay: Expression level of fibrosis marker α-SMA by real-time PCR in kidney of unilateral ureteral obstruction mouse model; details: 30 mg/kg intake, kidney with renal failure induced through ureteral obstruction, compared to the solvent control group
Description: 8-week old female C57BL/6 mice were used. After opening the abdomen of C57BL/6 mice, one of two ureters was closed with 6-0 cotton yarn. After closing the ureter, the abdomen was sutured and disinfected. Immediately after surgery, the host mice were classified into the solvent control group which is the non-intake group, and the CG200745 intake group in which CG200745 dissolved in distilled water was consumed (30 mg/kg/day). On the 7th day after surgery, the solvent control group and the CG200745 intake group mice were euthanized, and then normal kidney and the kidney with acute renal failure induced after ureteral obstruction were extracted. […]
The kidney cortex was homogenized with Trizol solution (Invitrogen, Carlsbad, Calif.). […] The washed RNA was dissolved in distilled water and then the concentration was determined by measuring absorbance at 260 nm (Ultraspec 2000; Pharmacia Biotech, Cambridge, UK). cDNA was produced by reverse transcription of […] RNA using oligo(dT) primer and superscript reverse transcriptase II (Invitrogen, Carlsbad, Calif.). The produced cDNA was quantified by measuring with SYBR Green using Smart Cycler II System (Cepheid, Sunnyvale, Calif.). […]

## CN(C)CCCNC(=O)/C(=C/CCCCC(=O)NO)COc1cccc2ccccc12 [CG200745, (E)-N1-(3-(dimethylamino)propyl)-N8-hydroxy-2-((naphthalene-1-yloxy)methyl)oct-2-enediamide]
[1]; lung tissue
  expression levels of fibrosis markers (α-SMA, Collagen I, PAI-1) increased by polyhexamethylene guanidine treatment: reduced in CG200745 concentration-dependent manner
[1]
  level of histone acetylation (Acetylated H3) in lung tissue: increased
Collagen [2]
  collagen in bronchoalveolar lavage fluid increased by polyhexamethylene guanidine (sircol assay): significantly decreased in CG200745 concentration-dependent manner
[3]; lung tissue
  expression levels of fibrosis markers (α-SMA, Collagen I, PAI-1) increased by bleomycin treatment: reduced in CG200745 concentration-dependent manner
[3]
  level of histone acetylation (Acetylated H3) in lung tissue: increased
[4]
  polyhexamethylene guanidine-induced pulmonary fibrosis (lung histopathology): suppressed in CG200745 concentration-dependent manner and normalized
[5]
  fibrosis progression in the kidney (histopathology): inhibited
[6]
  degree of fibrosis and collagen accumulation increased by bleomycin treatment (lung histopathology): significantly decreased in CG200745 concentration-dependent manner and normalized
Collagen [7]
  collagen in bronchoalveolar lavage fluid increased by bleomycin treatment (sircol assay): significantly decreased in CG200745 concentration-dependent manner
[8]
  reduction of α-SMA expression (real-time PCR): ≥ 50%

Source: patent US20210015772A1, “PHARMACEUTICAL COMPOSITION FOR PREVENTION OR TREATMENT OF FIBROSIS” (CRYSTALGENOMICS, INC., priority 2018, published 2021)
